From paper PMC11231610, “Fatty acid binding to the human transport proteins FABP3, FABP4, and FABP5 from a Ligand’s perspective” (The Journal of Biological Chemistry, 2024)
“And” between values parts separate entries of the source, which are not always exact repeats. Equal entries are not always repeated. Where two headings read alike, the source gives them in different places.

Tests used:
Type in all cases: binding
FABP5 [1] = molecular target: T1, FABP5 (Homo sapiens, UniProt Q01469); assay: CW EPR spectra and spectral simulations of spin-probed fatty acids with FABP5; conditions: for increase of intermediately bound component: FABPx/16-DSA 20/20 μM
T1 construct: purchased Sigma Aldrich
Experimental: (§1) For a more in-depth view of the binding mechanism, CW EPR spectra of 5/16-DSA with concentration series of the FABPs were measured and simulated. […] Equal concentrations of 20 μM of each spin probe (5- and 16-DSA) were mixed with FABP concentrations of 0 to 200 μM, increasing the resulting ligand/protein ratio in the samples stepwise from 1/0 to 1/10.
(§2) To analyze the spectra quantitatively, subsequent EPR spectral simulations were performed (Fig. 2, B and C). […] For a better understanding, a first interpretation of these components is given at this point. The rotational dynamics are thought to be indirectly proportional to the strength of intermolecular interactions between fatty acid and FABP. Therefore, they are indicative of the binding state of the fatty acids. Higher rotational correlation times signalize lower ligand dynamics and stronger interactions with the protein. […] This exchange broadening can only occur if radicals are located very close distance each other, colliding with each other, leading to partial overlap of spin-bearing orbitals.
(§3) The fractions (weights) Φx of the spectral components were extracted from the EPR simulations of the concentration series and were used to calculate the concentrations of all components with Eq (1). in Figure 3. This was performed for the intermediately and strongly bound components, as well as for their sum, called totally bound 5/16-DSA, to construct binding curves for all FABPs and spin probes. […] Different fit functions were applied to the curves for a better qualitative and quantitative analysis.

FABP4 = molecular target: T2, FABP4 (Homo sapiens, UniProt P15090); assay: CW EPR spectra and spectral simulations of spin-probed fatty acids with FABP4
T2 construct: purchased Sigma Aldrich
Experimental: as §1, §2, §3

FABP3 = molecular target: T3, FABP3 (Homo sapiens, UniProt P05413); assay: CW EPR spectra and spectral simulations of spin-probed fatty acids with FABP3; conditions: for increase of intermediately bound component: FABPx/16-DSA 20/20 μM
T3 construct: purchased Sigma Aldrich
Experimental: as §1, §2, §3

FABP5 [2] = molecular target: T1, FABP5; assay: DHA displacement of 16-DSA from FABP5 by CW EPR; conditions: FABP5/16-DSA/DHA 20/20/0, before DHA addition
Description: In a second addition during revision, we were curious about the question of whether our model ligands that bind with medium affinity to the FABP binding pocket will be displaced when we add a native ligand with higher affinity and whether we could detect this displacement with our CW EPR setup. The native ligand DHA was chosen for this displacement analysis since it is well-known to bind with high affinity to FABP5 ([26]). DHA was pre-dissolved in ethanol, diluted into buffer, and mixed with FABP5 and 16-DSA. […] Samples with FABP5/16-DSA/DHA ratios 20/20/0, 20/20/5, 20/20/10, 20/20/20, 20/20/50, and 20/20/100 were prepared with 5 min incubation time in between 16-DSA and DHA addition. […] We assume that the well-known high binding affinity of DHA refers to the state of strong binding within the pocket. […] Instead, a dynamic exchange of ligands seems to occur, as we consistently observe it with albumins from different species. However, this part opens the way to other future competitive binding assays via CW EPR spectroscopy, e.g., with pharmaceuticals that bind to FABPs.
CW EPR spectroscopic measurements were performed at X-band frequencies (∼9.4 GHz) with a benchtop spectrometer Magnettech MS-5000 (Freiberg Instruments GmbH, now Bruker Biospin). The samples were prepared in low-binding PCR tubes (250 μl). Protein and 5/16-DSA solutions were mixed with HEPES/NaCl buffer at pH 7.5, to obtain samples with a constant 5/16-DSA concentration of 20 μM and varying FABP concentrations of 200, 100, 50, 35, 25, 20, 15, 10 and 5 μM. After an incubation time of 20 min, the samples were transferred into glass capillaries, which were sealed with ‘Critoseal’. At first, solutions with 20 μM of 5/16-DSA were measured as references at 37 °C. The concentration series of FABP with 20 μM 5/16-DSA were measured at 37 °C, directly after preparation. Afterward, the sample capillaries were stored at 4 °C, and subsequent temperature-dependent measurements were performed. […]

[3] = 37 °C, 20 μM spin probe, EPR binding curve, read-out: KD,T,75′ (fit), apparent KD read at 75% totally bound
[4] = FABP5/16-DSA 100/100 μM/μM, 37 °C
[5] = changing the buffer from HEPES to TRIS, pH 7.5
[6] = lowering the pH from 7.5 to 6 in HEPES/NaCl
[7] = Hill fit of EPR binding curve, totally bound, 37 °C
[8] = Hill fit, totally bound (T), y = bound 5/16-DSA
[9] = read-out: KD,T,50′ (fit), apparent KD read at 50% totally bound, 37 °C, 20 μM spin probe, EPR binding curve
[10] = FABP3/16-DSA 100/100 μM/μM, 37 °C

T3 sequence (P05413 whole entry): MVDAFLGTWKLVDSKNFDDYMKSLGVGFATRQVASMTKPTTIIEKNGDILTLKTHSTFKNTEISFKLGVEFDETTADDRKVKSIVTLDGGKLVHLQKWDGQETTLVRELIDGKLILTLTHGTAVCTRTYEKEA
T2 sequence (P15090 whole entry): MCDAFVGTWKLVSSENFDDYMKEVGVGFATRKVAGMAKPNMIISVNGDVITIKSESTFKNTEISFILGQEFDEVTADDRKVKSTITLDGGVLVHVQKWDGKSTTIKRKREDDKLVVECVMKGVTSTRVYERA
T1 sequence (Q01469 whole entry): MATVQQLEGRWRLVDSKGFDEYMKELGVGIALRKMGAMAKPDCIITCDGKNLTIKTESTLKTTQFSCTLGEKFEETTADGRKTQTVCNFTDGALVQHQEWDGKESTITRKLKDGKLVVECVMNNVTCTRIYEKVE

SMILES: CCC1(CCCCCCCCCCCCCCC(=O)O)OCC(C)(C)N1[O] (stereo not drawn) [16-DSA, 16-DOXYL stearic acid]
- Kd (FABP5 [1]; 37 °C, 20 μM FABP5, 20 μM spin probe, read-out: KD,T,20μM (calculated, totally bound)): 2.14 ± 0.7 µM
- Kd (FABP5 [1]; [3]): 22 ± 0.2 µM
- Kd (FABP5 [1]; 37 °C, 50 μM FABP5, 20 μM spin probe, read-out: KD,T,50μM (calculated, totally bound)): 5.87 ± 1.21 µM
- ΔGF−I,100μM (free to intermediately bound) (FABP5 [1]; 37 °C, 100 μM FABP5): -26.7 ± 0.3 kJ/mol
- ΔGF−S,100μM (free to strongly bound) (FABP5 [1]; 37 °C, 100 μM FABP5): -19.4 ± 0.1 kJ/mol
- ΔGF−T,100μM (free to totally bound) (FABP5 [1]; 37 °C, 100 μM FABP5): -30.0 ± 0.8 kJ/mol
- ΔGI−S,100μM (intermediately to strongly bound) (FABP5 [1]; 37 °C, 100 μM FABP5): 4.0 ± 0.1 kJ/mol
- Kd (FABP5 [1]; 37 °C, 100 μM FABP5, 20 μM spin probe, read-out: KD,T,100μM (calculated, totally bound)): 8.9 ± 0.34 µM
- aiso, component (1) free (FABP5 [1]; 37 °C, EPR simulation): 44.1 MHz
- aiso, component (2) intermediately bound (FABP5 [1]; 37 °C, EPR simulation): 37–42.3 MHz
- aiso, component (3) strongly bound (FABP5 [1]; 37 °C, EPR simulation): 37 MHz
- τc,iso, component (1) free (FABP5 [1]; 37 °C, EPR simulation): 0.05–0.07 ns
- τc,iso, component (2) intermediately bound (FABP5 [1]; 37 °C, EPR simulation): 5.7 ns
- τc,iso, component (3) strongly bound (FABP5 [1]; 37 °C, EPR simulation): 22.2 ns
- totally bound fraction (FABP5 [1]; 37 °C, high FABP5 excess): 93%
- intermediately bound proportion (FABP5 [1]; FABP5/16-DSA 10/10 μM/μM, 37 °C): 61.5%
- intermediately bound proportion (FABP5 [1]; FABP5/16-DSA 20/20 μM/μM, 37 °C): 72.2%
- intermediately bound proportion (FABP5 [1]; FABP5/16-DSA 50/50 μM/μM, 37 °C): 80.8%
- intermediately bound proportion (FABP5 [1]; [4]): 81%
- strongly bound component (FABP5 [1]; [4]): 9.5%
- increase of intermediately bound component (FABP5 [1]; [5]): 6 to 8%
- increase of intermediately bound component (FABP5 [1]; [6]): 16 to 18%
- Hill coefficient n (FABP5 [1]; [7]): 0.852 ± 0.04 and < 1
- Hill fit k (FABP5 [1]; Hill fit, totally bound (T), x = c(FABP5)/c(5/16-DSA)): 0.315 ± 0.011
- Hill fit Vmax (FABP5 [1]; [8]): 98.288 ± 1.318
- Kd (FABP5 [1]; [9]): 7.6 ± 0.1 µM
- Kd (FABP4; 37 °C, 20 μM FABP4, 20 μM spin probe, read-out: KD,T,20μM (calculated, totally bound)): 10 ± 0.75 µM
- Kd (FABP4; [3]): 43.6 ± 0.4 µM
- Kd (FABP4; 37 °C, 50 μM FABP4, 20 μM spin probe, read-out: KD,T,50μM (calculated, totally bound)): 8.5 ± 4.1 µM
- ΔGF−I,100μM (free to intermediately bound) (FABP4; 37 °C, 100 μM FABP4): -28.4 ± 0.9 kJ/mol
- ΔGF−T,100μM (free to totally bound) (FABP4; 37 °C, 100 μM FABP4): -28.4 ± 0.9 kJ/mol
- Kd (FABP4; 37 °C, 100 μM FABP4, 20 μM spin probe, read-out: KD,T,100μM (calculated, totally bound)): 16.7 ± 0.44 µM
- aiso, component (1) free (FABP4; 37 °C, EPR simulation): 44.1 MHz
- aiso, component (2) intermediately bound (FABP4; 37 °C, EPR simulation): 44.7–48.0 MHz
- τc,iso, component (1) free (FABP4; 37 °C, EPR simulation): 0.05–0.13 ns
- τc,iso, component (2) intermediately bound (FABP4; 37 °C, EPR simulation): 4.0–5.8 ns
- τc,iso, component (3) strongly bound (FABP4; 37 °C, EPR simulation): 22.2 ns
- Hill coefficient n (FABP4; [7]): 1.454 and > 1
- Hill fit k (FABP4; Hill fit, totally bound (T), x = c(FABP4)/c(5/16-DSA)): 0.797 ± 0.047
- Hill fit Vmax (FABP4; [8]): 92.29 ± 2.876
- Kd (FABP4; [9]): 17.8 ± 0.2 µM
- Kd (FABP3; 37 °C, 20 μM FABP3, 20 μM spin probe, read-out: KD,T,20μM (calculated, totally bound)): 1.08 ± 0.55 µM
- Kd (FABP3; [3]): 18 ± 0.2 µM
- Kd (FABP3; 37 °C, 50 μM FABP3, 20 μM spin probe, read-out: KD,T,50μM (calculated, totally bound)): 0.81 µM
- ΔGF−I,100μM (free to intermediately bound) (FABP3; 37 °C, 100 μM FABP3): -33.7 ± 2.5 kJ/mol
- ΔGF−S,100μM (free to strongly bound) (FABP3; 37 °C, 100 μM FABP3): -13.1 ± 0.1 kJ/mol
- ΔGF−T,100μM (free to totally bound) (FABP3; 37 °C, 100 μM FABP3): -37.5 ± 5.4 kJ/mol
- ΔGI−S,100μM (intermediately to strongly bound) (FABP3; 37 °C, 100 μM FABP3): 10.6 ± 0.2 kJ/mol
- Kd (FABP3; 37 °C, 100 μM FABP3, 20 μM spin probe, read-out: KD,T,100μM (calculated, totally bound)): 0.48 µM
- aiso, component (1) free (FABP3; 37 °C, EPR simulation): 44.1 MHz
- aiso, component (2) intermediately bound (FABP3; 37 °C, EPR simulation): 41.6–42.6 MHz
- aiso, component (3) strongly bound (FABP3; 37 °C, EPR simulation): 38.7 MHz
- τc,iso, component (1) free (FABP3; 37 °C, EPR simulation): 0.04–0.1 ns
- τc,iso, component (2) intermediately bound (FABP3; 37 °C, EPR simulation): 5.2–8.4 ns
- τc,iso, component (3) strongly bound (FABP3; 37 °C, EPR simulation): 19.1–22.2 ns
- intermediately bound proportion (FABP3; FABP3/16-DSA 10/10 μM/μM, 37 °C): 67.1%
- intermediately bound proportion (FABP3; FABP3/16-DSA 20/20 μM/μM, 37 °C): 72.6%
- intermediately bound proportion (FABP3; FABP3/16-DSA 50/50 μM/μM, 37 °C): 85.9%
- intermediately bound proportion (FABP3; [10]): 90.3%
- strongly bound component (FABP3; [10]): 2.8%
- increase of intermediately bound component (FABP3; [5]): 6 to 8%
- increase of intermediately bound component (FABP3; [6]): 16 to 18%
- Hill fit k (FABP3; Hill fit, totally bound (T), x = c(FABP3)/c(5/16-DSA)): 0.535 ± 0.005
- Hill fit Vmax (FABP3; [8]): 100.399 ± 0.459
- Kd (FABP3; [9]): 10.6 ± 0.1 µM
- bound 16-DSA (FABP5 [2]): 72%
